Measurements from ChEMBL document CHEMBL4270552, “4-(Phenoxy) and 4-(benzyloxy)benzamides as potent and selective inhibitors of mono-ADP-ribosyltransferase PARP10/ARTD10” (Eur J Med Chem, 2018).

Key:
[1] = molecular target: T1, Protein mono-ADP-ribosyltransferase PARP12 (Homo sapiens, UniProt Q9H0J9); experiment: Inhibition of N-terminal His-tagged thioredoxin-fused human ARTD12 (469 to 701 residues) expressed in Escherichia coli Rosetta2 (DE3) after 20 hrs in presence of NAD+
T1 sequence (Q9H0J9 whole entry): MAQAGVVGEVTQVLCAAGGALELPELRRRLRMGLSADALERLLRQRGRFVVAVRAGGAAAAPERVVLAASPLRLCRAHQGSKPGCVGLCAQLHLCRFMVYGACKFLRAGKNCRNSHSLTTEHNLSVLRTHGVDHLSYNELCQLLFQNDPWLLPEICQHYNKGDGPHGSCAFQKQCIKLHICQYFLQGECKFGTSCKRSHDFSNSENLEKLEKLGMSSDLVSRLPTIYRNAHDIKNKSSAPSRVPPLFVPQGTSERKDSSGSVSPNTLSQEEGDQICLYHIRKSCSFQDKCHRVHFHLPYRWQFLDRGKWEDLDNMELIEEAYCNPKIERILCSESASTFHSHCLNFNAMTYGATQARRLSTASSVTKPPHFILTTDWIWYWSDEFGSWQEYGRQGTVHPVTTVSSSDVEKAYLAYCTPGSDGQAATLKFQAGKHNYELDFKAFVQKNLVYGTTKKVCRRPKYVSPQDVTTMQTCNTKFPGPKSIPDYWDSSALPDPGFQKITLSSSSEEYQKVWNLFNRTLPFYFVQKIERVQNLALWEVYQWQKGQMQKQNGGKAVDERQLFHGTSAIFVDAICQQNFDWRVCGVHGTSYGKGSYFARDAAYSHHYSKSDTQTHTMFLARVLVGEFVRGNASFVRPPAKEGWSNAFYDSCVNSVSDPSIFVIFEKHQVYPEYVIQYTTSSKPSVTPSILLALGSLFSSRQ

[2] = molecular target: T2, Protein mono-ADP-ribosyltransferase PARP10 (Homo sapiens, UniProt Q53GL7); experiment: Inhibition of C-terminal His-tagged human ARTD10 (809 to 1017 residues) expressed in Escherichia coli Rosetta2 (DE3) using SRPK2 as substrate after 13 hrs in presence of NAD+
T2 sequence (Q53GL7 whole entry): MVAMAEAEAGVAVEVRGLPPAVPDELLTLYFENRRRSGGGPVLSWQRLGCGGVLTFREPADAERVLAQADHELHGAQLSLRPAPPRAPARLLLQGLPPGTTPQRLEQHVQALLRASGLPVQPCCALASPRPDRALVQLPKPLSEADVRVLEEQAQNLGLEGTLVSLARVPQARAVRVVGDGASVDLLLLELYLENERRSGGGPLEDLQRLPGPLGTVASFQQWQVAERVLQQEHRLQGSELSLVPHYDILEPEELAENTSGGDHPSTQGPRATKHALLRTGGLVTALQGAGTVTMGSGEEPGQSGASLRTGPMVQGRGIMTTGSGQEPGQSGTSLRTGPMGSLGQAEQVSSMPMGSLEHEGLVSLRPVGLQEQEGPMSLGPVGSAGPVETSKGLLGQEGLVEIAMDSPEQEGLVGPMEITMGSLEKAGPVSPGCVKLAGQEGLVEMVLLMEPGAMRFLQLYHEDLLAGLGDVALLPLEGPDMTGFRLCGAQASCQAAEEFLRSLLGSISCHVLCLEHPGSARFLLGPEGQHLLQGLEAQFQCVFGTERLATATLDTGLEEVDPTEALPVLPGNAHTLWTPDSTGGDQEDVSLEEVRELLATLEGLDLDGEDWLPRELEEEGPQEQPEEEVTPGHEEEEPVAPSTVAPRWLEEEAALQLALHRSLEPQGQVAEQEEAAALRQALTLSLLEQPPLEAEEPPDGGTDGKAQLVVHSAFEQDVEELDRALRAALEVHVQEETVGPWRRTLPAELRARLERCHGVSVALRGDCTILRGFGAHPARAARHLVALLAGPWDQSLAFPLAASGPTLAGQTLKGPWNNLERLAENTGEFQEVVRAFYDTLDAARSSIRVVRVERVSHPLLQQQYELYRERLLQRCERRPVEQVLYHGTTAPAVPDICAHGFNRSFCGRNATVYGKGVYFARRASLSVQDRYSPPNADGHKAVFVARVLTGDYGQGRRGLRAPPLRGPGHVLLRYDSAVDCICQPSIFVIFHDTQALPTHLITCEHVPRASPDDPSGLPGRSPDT

[3] = molecular target: Zinc finger CCCH-type antiviral protein 1 (Homo sapiens) (UniProt Q7Z2W4)
Description: Stabilization of human ARTD13 expressed in Escherichia coli assessed as change in melting temperature at 100 uM by SYPRO Orange-dye based differential scanning fluorimetric method

[4] = molecular target: T3, Protein mono-ADP-ribosyltransferase PARP15 (Homo sapiens, UniProt Q460N3); experiment: Inhibition of N-terminal His-tagged human ARTD7 (482 to 678 residues) expressed in Escherichia coli Rosetta2 (DE3) using SRPK2 as substrate after 3 hrs in presence of NAD+
T3 sequence (Q460N3 whole entry): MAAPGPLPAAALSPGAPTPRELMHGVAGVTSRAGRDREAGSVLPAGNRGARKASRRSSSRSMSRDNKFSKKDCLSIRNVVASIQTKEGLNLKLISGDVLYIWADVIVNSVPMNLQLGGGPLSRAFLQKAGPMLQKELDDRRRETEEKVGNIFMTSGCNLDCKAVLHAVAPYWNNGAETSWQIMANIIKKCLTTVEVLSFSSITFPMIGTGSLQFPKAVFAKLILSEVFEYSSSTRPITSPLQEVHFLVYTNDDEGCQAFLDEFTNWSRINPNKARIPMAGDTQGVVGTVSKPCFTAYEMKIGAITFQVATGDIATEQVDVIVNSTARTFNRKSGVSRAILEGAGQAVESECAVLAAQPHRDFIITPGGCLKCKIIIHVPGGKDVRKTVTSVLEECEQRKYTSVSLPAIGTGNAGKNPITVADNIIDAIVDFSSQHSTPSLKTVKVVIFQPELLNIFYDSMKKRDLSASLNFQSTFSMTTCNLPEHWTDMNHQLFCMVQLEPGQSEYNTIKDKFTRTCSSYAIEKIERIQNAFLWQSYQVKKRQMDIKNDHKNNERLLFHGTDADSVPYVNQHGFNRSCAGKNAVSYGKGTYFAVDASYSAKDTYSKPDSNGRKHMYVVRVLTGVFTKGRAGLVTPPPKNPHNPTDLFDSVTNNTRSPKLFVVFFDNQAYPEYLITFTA

[5] = molecular target: Protein mono-ADP-ribosyltransferase PARP4 (Homo sapiens, UniProt Q9UKK3); experiment: Inhibition of N-terminal His-tagged human ARTD4 (250 to 565 residues) expressed in Escherichia coli Rosetta2 (DE3) using TCEP as substrate after 2.5 hrs in presence of NAD+
Chain of Protein mono-ADP-ribosyltransferase PARP4 (Q9UKK3 whole entry, the tested form may be a part): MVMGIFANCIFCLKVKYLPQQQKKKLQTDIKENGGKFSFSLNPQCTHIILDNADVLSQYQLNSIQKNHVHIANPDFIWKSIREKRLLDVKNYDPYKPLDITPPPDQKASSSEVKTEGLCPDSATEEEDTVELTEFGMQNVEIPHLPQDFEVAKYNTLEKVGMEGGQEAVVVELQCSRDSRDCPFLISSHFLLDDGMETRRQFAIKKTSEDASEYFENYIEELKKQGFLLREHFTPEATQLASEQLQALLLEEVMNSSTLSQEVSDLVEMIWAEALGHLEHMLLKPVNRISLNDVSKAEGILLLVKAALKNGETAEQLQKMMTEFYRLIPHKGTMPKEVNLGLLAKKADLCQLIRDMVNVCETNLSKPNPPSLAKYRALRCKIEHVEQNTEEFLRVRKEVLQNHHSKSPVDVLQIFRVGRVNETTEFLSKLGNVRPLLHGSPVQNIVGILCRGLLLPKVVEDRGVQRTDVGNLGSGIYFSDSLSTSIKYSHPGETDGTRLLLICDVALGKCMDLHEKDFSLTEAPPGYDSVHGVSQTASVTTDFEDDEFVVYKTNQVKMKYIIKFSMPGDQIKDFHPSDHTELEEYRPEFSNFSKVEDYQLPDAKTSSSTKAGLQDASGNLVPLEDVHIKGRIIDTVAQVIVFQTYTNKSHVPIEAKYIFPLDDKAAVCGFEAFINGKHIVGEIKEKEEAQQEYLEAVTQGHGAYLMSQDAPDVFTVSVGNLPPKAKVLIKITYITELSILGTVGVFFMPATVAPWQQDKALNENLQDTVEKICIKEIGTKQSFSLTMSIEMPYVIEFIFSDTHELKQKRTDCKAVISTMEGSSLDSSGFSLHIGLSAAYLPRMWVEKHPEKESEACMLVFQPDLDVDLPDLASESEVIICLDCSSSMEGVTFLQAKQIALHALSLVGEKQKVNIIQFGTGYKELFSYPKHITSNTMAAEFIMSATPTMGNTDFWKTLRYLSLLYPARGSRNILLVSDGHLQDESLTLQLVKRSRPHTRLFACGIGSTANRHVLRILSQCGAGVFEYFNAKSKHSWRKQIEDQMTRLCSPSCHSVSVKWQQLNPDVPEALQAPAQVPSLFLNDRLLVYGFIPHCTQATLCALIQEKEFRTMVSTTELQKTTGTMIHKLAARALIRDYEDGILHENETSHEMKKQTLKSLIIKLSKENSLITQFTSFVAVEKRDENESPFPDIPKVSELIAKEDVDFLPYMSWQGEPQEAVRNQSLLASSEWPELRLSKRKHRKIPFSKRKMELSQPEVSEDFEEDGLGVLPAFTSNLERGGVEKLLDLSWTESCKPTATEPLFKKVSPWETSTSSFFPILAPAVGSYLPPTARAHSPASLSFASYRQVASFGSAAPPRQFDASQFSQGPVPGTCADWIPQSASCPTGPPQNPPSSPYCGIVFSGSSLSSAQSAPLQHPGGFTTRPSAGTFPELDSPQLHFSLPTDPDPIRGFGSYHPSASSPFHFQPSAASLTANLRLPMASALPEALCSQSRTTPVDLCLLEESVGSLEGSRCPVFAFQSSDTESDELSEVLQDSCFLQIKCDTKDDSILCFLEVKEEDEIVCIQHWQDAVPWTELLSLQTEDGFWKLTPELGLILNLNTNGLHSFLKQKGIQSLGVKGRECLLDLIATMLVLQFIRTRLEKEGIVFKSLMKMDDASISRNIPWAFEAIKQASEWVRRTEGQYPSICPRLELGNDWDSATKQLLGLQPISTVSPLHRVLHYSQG

Chain of Zinc finger CCCH-type antiviral protein 1 (Homo sapiens) (Q7Z2W4 whole entry, the tested form may be a part): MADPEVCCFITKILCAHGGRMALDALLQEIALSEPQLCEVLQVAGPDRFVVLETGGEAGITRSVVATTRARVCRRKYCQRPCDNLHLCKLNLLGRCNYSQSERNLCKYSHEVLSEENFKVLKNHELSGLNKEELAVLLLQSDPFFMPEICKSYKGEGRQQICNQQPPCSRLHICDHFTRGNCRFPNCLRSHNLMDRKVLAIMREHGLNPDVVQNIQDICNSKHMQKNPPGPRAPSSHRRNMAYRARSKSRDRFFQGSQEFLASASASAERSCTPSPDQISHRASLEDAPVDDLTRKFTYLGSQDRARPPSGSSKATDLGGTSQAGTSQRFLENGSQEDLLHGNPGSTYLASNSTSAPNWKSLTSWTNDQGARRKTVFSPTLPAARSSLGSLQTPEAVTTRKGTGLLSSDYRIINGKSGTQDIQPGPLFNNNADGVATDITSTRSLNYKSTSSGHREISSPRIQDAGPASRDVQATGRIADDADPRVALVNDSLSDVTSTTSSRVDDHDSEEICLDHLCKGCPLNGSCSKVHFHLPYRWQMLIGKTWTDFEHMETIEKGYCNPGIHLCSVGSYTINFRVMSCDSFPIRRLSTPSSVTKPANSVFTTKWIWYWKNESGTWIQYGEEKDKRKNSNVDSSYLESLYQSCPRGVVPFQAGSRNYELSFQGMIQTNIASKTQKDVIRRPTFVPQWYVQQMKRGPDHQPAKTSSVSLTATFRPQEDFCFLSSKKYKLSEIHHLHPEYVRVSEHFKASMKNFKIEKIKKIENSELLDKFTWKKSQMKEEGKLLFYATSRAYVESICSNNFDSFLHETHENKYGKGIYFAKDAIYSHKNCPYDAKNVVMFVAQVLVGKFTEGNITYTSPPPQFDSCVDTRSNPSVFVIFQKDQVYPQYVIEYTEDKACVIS

SMILES	IC50 [1] [µM]	IC50 ([2]; read-out: IC50) [µM]	IC50 ([2]; read-out: pIC50 (converted)) [µM]	ΔTm [3] [°C]	IC50 [4] [µM]	IC50 [5] [µM]
NC(=O)c1ccc(OCc2ccccc2F)cc1	> 10	0.23	0.234	0.37	3.3	> 100
NC(=O)c1ccc(Oc2ccc(C=O)cc2)cc1	> 10	0.71	–	0.49	> 10	> 100
NC(=O)c1ccc(Oc2ccc(C(=O)O)cc2)cc1	> 10	0.18	0.186	0.72	2.6	> 100
COc1ccc(C(N)=O)cc1	> 10	2.8	2.75	0.44	> 10	65
